Experimental data as given in patent US8618051B2, “Vesiculins” (Auckland Uniservices Limited, priority 2005, dated 2013).

System: rat soleus muscle strips
Test: rat soleus muscle assay: D-[14C(U)]-glucose incorporation into muscle glycogen
Settings: isolated soleus muscle strips of fasted male Wistar rats; peptide 0.71 nM to 237 nM; 120 minutes at 30° C.; read-out: EC50, stimulating the uptake and incorporation of radioactive glucose into muscle glycogen
Method: The soleus muscle was dissected from anaesthetized fasted male Wistar rats (200 g±20 g). Each muscle was then teased longitudinally into 3 equal strips with a final radius of approximately 1.5 mm. An average of six muscle strips were transferred into flasks, containing 10 ml of carbogen-saturated nDMEM and peptide (vesiculin, insulin-II, or commercial human IGF-II (GroPep)) at concentrations ranging from 0.71 nM to 237 nM, before the addition of 10 μl of (0.5 μCi) D-[^14C(U)]-Glucose. Flasks were then incubated in a shaking water bath for 120 minutes at 30° C. under a stream of carbogen.
After incubation, the muscle strips were removed and blotted dry before being frozen instantly in liquid nitrogen and freeze-dried for 24 hours. The dried weight of muscle strip was recorded before the muscle strips were solubilised in 250 μl of 60% KOH (70° C. water bath for 45 minutes). 750 μl of ice-cold ethanol was then added and the tubes were left overnight at −20° C. to facilitate glycogen precipitation. Tubes were then centrifuged at 9000 g for 15 minutes at 0° C., the supernatant aspirated and the glycogen pellet resuspended in 750 μl of ice-cold ethanol. […] The tubes were mixed thoroughly, and then counted using a Beckman LS 3801 β-counter. The amount of D-[^14C(U)]-Glucose incorporation into muscle glycogen was calculated by dividing the cpm values by the dry muscle weight. […]

Substance	EC50 [nM]
human IGF-II: commercial human IGF-II (GroPep), used as a further positive control	48
mouse insulin-II: insulin-II co-purified from βTC6-F7 granules as a preparative control	27
